Key:
[1] = Limit of solubility / precipitation in assay media; format: physicochemical; settings: 100 μM in water, 0.5% DMSO (zebrafish assay)
M. chitwoodi = experiment: Meloidogyne chitwoodi infectivity assays (tomato roots in soil); format: in vivo; settings: 45 μM in soil, 8 weeks, egg counts relative to DMSO control
Description: An M. incognita population originally collected from grape (Vitis vinifera) in Parlier, Calif., was used for all experiments, and they were maintained on tomato plants (Solanum lycopersicum ‘Rutgers’) as previously described^73. Infective J2 juveniles were collected as described in^73. For the infectivity assays, 90 grams of soil (1:1 sand:loam mix) was added to each cell of several 6-cell plastic garden packs. The soil was drenched with 18 mL of deionized water containing dissolved chemical or DMSO alone. 2,500 infective J2 juveniles were then added to the soil in 2 mL of deionized water, for a total water volume of 20 mL. The final concentration of the chemicals in water was 45 μM. The DMSO concentration varied from 0.1% to 0.8% (v/v) depending on the stock concentration of the chemical. The highest DMSO concentration was used as the DMSO control. The J2s were incubated in the soil and chemical for 24 hours, after which two- to three-week old tomato seedlings were transplanted into the soil (one plant per cell). […] The number of eggs from each plant root was counted on a dissection microscope using a haemocytometer, and the number of eggs per milligram of root was calculated by dividing the total egg number by the mass of the dried root material. […] An average percent effectiveness value was then calculated across the two different batches carried out on different days. […]

## Clc1ccc(-c2cn3ccsc3n2)cc1 [Ia]
[1]
  compound precipitation: Some compound precipitation was observed
M. chitwoodi
  % effectiveness at inhibiting reproduction of M. chitwoodi: 42.6%

Reference: patent US20220264883A1, “IMIDAZOTHIAZOLE COMPOUNDS AND METHODS FOR TREATING PLANT NEMATODE INFECTIONS” (The Governing Council of the University of Toronto, priority 2019, published 2022)
